Test results reported in patent US20060160851A1, “Substituted piperidine carbamates” (Novo Nordisk A/S, priority 2003, published 2006).

molecular target: T1, hormone sensitive lipase (Homo sapiens, UniProt Q05469); test: Assay 3190.1: percent inhibition of hormone sensitive lipase by compound at 10 μM (fluorochrome-labeled triacylglyceride emulsion, HSL_FL); type: biochemical; details: 10 μM sample concentration; % activity relative to non-inhibited sample (no compound); 30 min preincubation at 25° C., 120 min incubation at 37° C.
T1 construct: made in house
T1 sequence (Q05469 1-1076): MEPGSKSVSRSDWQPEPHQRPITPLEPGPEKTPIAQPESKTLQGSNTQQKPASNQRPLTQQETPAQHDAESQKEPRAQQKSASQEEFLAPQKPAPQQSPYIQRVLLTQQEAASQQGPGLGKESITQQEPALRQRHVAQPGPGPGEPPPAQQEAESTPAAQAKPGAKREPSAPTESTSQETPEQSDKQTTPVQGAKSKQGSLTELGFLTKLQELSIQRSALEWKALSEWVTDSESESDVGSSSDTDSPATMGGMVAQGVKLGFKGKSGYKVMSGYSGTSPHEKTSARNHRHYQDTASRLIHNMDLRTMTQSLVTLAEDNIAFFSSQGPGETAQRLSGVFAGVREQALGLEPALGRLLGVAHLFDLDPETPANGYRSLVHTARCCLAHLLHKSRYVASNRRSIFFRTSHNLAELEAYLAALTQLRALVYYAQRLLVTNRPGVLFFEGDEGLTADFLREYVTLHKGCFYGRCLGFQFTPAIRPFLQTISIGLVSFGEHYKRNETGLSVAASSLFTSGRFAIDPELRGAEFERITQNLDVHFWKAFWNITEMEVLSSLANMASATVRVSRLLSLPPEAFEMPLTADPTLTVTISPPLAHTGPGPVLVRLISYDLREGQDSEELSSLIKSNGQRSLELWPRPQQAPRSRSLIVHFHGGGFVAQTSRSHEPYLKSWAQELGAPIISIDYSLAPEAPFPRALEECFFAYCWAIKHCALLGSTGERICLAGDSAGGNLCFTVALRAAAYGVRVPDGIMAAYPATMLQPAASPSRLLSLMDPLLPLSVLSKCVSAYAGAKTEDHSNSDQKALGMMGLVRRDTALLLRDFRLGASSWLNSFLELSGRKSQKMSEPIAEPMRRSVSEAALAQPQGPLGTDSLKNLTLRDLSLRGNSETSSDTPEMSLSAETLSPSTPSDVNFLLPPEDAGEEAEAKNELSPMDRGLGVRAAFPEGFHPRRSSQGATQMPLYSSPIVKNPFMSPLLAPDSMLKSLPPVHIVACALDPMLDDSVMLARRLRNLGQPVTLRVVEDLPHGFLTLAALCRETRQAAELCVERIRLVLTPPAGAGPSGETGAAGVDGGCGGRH
From the text: The Hormone-sensitive lipase was provided by Dr. Cecilia Holm, from Lund University Sweden or produced and purified by Novo Nordisk (NN) using the reagents and protocols used by Dr. Holm. The substrates used are: ^3H-labeled triolein (TO) from Amersham, Buckinghamshire, U.K. cat No. TRA191; 5-20 Ci/mmol dissolved in toluene, triolein (Sigma, Cat. No. T-1740), fluorochrome-labeled triacylglyceride (cis-octadec-9-enoic acid 2-[12-(7-nitrobenzo[1,2,5]oxadiazol-4-ylamino)dodecanoyloxy]-1-cis-octadec-9-enoyloxymethyl-ethyl ester) prepared by Novo Nordisk (NN) by conventional methods, and 1,3-(di[^3H]-stearin), 2-(PEG-Biotin)glycerol prepared in collaboration with Amersham Pharmacia Biotech, UK and described in WO 01/073442. Phosphatidyl choline (PC) and phosphatidyl inositol (PI) are from Sigma (St Luis Mo. cat. Nos. P-3556 and P-5954 respectively). All other reagents are of commercial grade and obtained from various commercial sources.
3190.1: Assay for determination of percent inhibition of hormone sensitive lipase by compound at 10 μM sample concentration.
A lipid emulsion with fluorochrome-labeled triacylglyceride and phospholipid is used as substrate with a standard concentration of highly purified HSL (12 μg/mL initial concentration corresponding to 600 ng/mL final concentration). BSA is added as product acceptor receptor. The transfer of the fluorochrome from the lipid phase to the water (BSA) phase changes the fluorescent properties of the fluorochrome. The changes can be monitored on a fluorimeter with an excitation wavelength of 450 nm and an emission wavelength of 545 nm.
Compound and HSL (20 μL compound, 10 μL enzyme and 70 μL PED-BSA buffer) is pre-incubated for 30 min at 25° C. before addition of substrate (100 μL). Amount of formed product is measured after 120 min incubation at 37° C.
Results are given as percent activity relative to a non-inhibited sample (no compound).

SMILES | Test 3190.1 HSL_FL % ACTIVITY [%]
CCOC(=O)CCc1ccc(OC2CCN(C(=O)Oc3ccc(Oc4ccc(C(F)(F)F)cn4)cc3)CC2)cc1 [Example 31, -[4-(2-Ethoxycarbonyl-ethyl)-phenoxy]-piperidine-1-carboxylic acid 4-(5-trifluoromethyl-pyridin-2-yloxy)-phenyl ester] | 0

same assay, conditions: 10 μM sample concentration; % activity relative to non-inhibited sample (no compound); 30 min preincubation at 25° C., 120 min incubation at 37° C.; read-out: Test 3190.1 HSL_FL % ACTIVITY

SMILES | activity at 10 µM [%]
O=C(Nc1ccc(OC(=O)N2CCC(On3cccn3)CC2)nc1)c1ccccc1 [Example 61, 4-(Pyrazol-1-yloxy)-piperidine-1-carboxylic acid 5-benzoylamino-pyridin-2-yl ester] | 15
CC(C)(C)CCNC(=O)c1ccc(OC(=O)N2CCC(Oc3ccc(C(=O)O)cc3)CC2)cc1 [Example 105, 4-(4-Carboxy-phenoxy)-piperidine-1-carboxylic acid 4-(3,3-dimethyl-butylcarbamoyl)-phenyl ester] | 11
O=C(O)Cc1ccc(OC2CCN(C(=O)Oc3ccc(CCOc4ccc(-n5cnnc5)cc4)cc3)CC2)cc1 [Example 97, 4-(4-Carboxymethyl-phenoxy)-piperidine-1-carboxylic acid 4-[2-(4-[1,2,4]triazol-4-yl-phenoxy)-ethyl]-phenyl ester] | 15
O=C(O)c1ccc(OC2CCN(C(=O)Oc3ccc(Oc4ccc(C(F)(F)F)cn4)cc3)CC2)cc1 [Example 39, 4-(4-Carboxy-phenoxy)-piperidine-1-carboxylic acid 4-(5-trifluoromethyl-pyridin-2-yloxy)-phenyl ester] | 5
O=C(O)Cc1ccc(OC2CCN(C(=O)Oc3ccc(C(=O)NCCc4cccs4)cc3)CC2)cc1 [Example 91, 4-(4-Carboxymethyl-phenoxy)-piperidine-1-carboxylic acid 4-(2-thiophen-2-yl-ethylcarbamoyl)-phenyl ester] | 10
O=C(Oc1ccc(Oc2ccc(C(F)(F)F)cn2)cc1)N1CCC(Cc2ccsc2)CC1 [Example 68, 4-Thiophen-3-ylmethyl-piperidine-1-carboxylic acid 4-(5-trifluoromethyl-pyridin-2-yloxy)-phenyl ester] | 3
O=C(Oc1ccc(Cc2ccc(C(F)(F)F)cc2)cc1)N1CCC(Cc2ncccn2)CC1 [Example 67, 4-Pyrimidin-2-ylmethyl-piperidine-1-carboxylic acid 4-(4-trifluoromethyl-benzyl)-phenyl ester] | 4
O=C(O)Cc1ccc(OC2CCN(C(=O)Oc3ccc(Cc4ncc(C(F)(F)F)cc4Cl)cc3)CC2)cc1 [Example 102, 4-(4-Carboxymethyl-phenoxy)-piperidine-1-carboxylic acid 4-(3-chloro-5-trifluoromethyl-pyridin-2-ylmethyl)-phenyl ester] | 11
O=C(O)Cc1ccc(OC2CCN(C(=O)Oc3ccc(Oc4ccc(C(F)(F)F)cc4)cc3)CC2)cc1 [Example 103, 4-(4-Carboxymethyl-phenoxy)-piperidine-1-carboxylic acid 4-(4-trifluoromethyl-phenoxy)-phenyl ester] | 6
O=C(O)CCc1cccc(OC2CCN(C(=O)Oc3ccc(Oc4ccc(C(F)(F)F)cn4)cc3)CC2)c1 [Example 112, 4-[3-(2-Carboxy-ethyl)-phenoxy]-piperidine-1-carboxylic acid 4-(5-trifluoromethyl-pyridin-2-yloxy)-phenyl ester] | 14
O=C(O)Cc1ccc(OC2CCN(C(=O)Oc3ccc(C(=O)NCCc4ccccc4)cc3)CC2)cc1 [Example 85, 4-(4-Carboxymethyl-phenoxy)-piperidine-1-carboxylic acid 4-phenethylcarbamoyl-phenyl ester] | 5
O=C(Oc1ccc(Oc2ccc(C(F)(F)F)cn2)cc1)N1CCC(Sc2nccn2-c2cccnc2)CC1 [Example 3, 4-(1-Pyridin-3-yl-1H-imidazol-2-ylsulfanyl)-piperidine-1-carboxylic acid 4-(5-trifluoromethyl-pyridin-2-yloxy)-phenyl ester] | 5
CN(CCC1CCN(C(=O)Oc2ccc(Oc3ccc(C(F)(F)F)cn3)cc2)CC1)Cc1ccccc1 [Example 1, 4-[2-(Benzyl-methyl-amino)-ethyl]-piperidine-1-carboxylic acid 4-(5-trifluoromethyl-pyridin-2-yloxy)-phenyl ester] | 1
O=C(O)Cc1ccc(OC2CCN(C(=O)Oc3ccc(Oc4ccc(Cl)cn4)cc3)CC2)cc1 [Example 117, 4-(4-Carboxymethyl-phenoxy)-piperidine-1-carboxylic acid 4-(5-chloro-pyridin-2-yloxy)-phenyl ester] | 8
C=CCOC(=O)Cc1ccc(OC2CCN(C(=O)Oc3ccc(CCN4C(=O)CC(C)(C)CC4=O)cc3)CC2)cc1 [Example 55, 4-(4-Allyloxycarbonylmethyl-phenoxy)-piperidine-1-carboxylic acid 4-[2-(4,4-dimethyl-2,6-dioxo-piperidin-1-yl)-ethyl]-phenyl ester] | 1
O=C(O)c1coc(-c2ccc(OC3CCN(C(=O)Oc4ccc(Oc5ccc(C(F)(F)F)cn5)cc4)CC3)cc2)n1 [Example 36, 4-[4-(4-Carboxy-oxazol-2-yl)-phenoxy]-piperidine-1-carboxylic acid 4-(5-trifluoromethyl-pyridin-2-yloxy)-phenyl ester] | 8
O=C(Oc1ccc(Oc2ccc(C(F)(F)F)cn2)cc1)N1CCC(Oc2cccnc2)CC1 [Example 10, 4-(Pyridin-3-yloxy)-piperidine-1-carboxylic acid 4-(5-trifluoromethyl-pyridin-2-yloxy)-phenyl ester] | 1
O=C(O)Cc1ccc(OC2CCN(C(=O)Oc3ccc(C(=O)NCC4CCCCC4)cc3)CC2)cc1 [Example 88, 4-(4-Carboxymethyl-phenoxy)-piperidine-1-carboxylic acid 4-(cyclohexylmethyl-carbamoyl)-phenyl ester] | 3
O=C(O)Cc1cccc(OC2CCN(C(=O)Oc3ccc(Oc4ccc(C(F)(F)F)cn4)cc3)CC2)c1 [Example 110, 4-(3-Carboxymethyl-phenoxy)-piperidine-1-carboxylic acid 4-(5-trifluoromethyl-pyridin-2-yloxy)-phenyl ester] | 20
O=C(O)Cc1ccc(CC2CCN(C(=O)Oc3ccc(Cc4ccc(C(F)(F)F)cc4)cc3)CC2)cc1 [Example 74, 4-(4-Carboxymethyl-benzyl)-piperidine-1-carboxylic acid 4-(4-trifluoromethyl-benzyl)-phenyl ester] | 3
O=C(Oc1ccc(Oc2ccc(C(F)(F)F)cn2)cc1)N1CCC(Oc2ccc(N3CCN(C4CCCC4)CC3)cc2)CC1 [Example 22, 4-[4-(4-Cyclopentyl-piperazin-1-yl)-phenoxy]-piperidine-1-carboxylic acid 4-(5-trifluoromethyl-pyridin-2-yloxy)-phenyl ester] | 4
CC1(C)CC(=O)N(CCc2ccc(OC(=O)N3CCC(Oc4ccc(C(=O)O)cc4)CC3)cc2)C(=O)C1 [Example 59, 4-(4-Carboxy-phenoxy)-piperidine-1-carboxylic acid 4-[2-(4,4-dimethyl-2,6-dioxo-piperidin-1-yl)-ethyl]-phenyl ester] | 31
